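Cultured in 96-well plates, cells were exposed to test compound for 48 hours across five concentrations. At the GI50, growth is halved.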 Calls of active or inactive are those of the source. Cut-off read from the data, not from the text of the source: active = GI50 up to about 1.1 µM and inactive = higher.
Experiments:
Assay in all cases: NCI-60 cell line screen, 48 h
OVCAR-5 = test system: OVCAR-5
MDA-MB-231 = test system: MDA-MB-231
PC-3 = test system: PC-3
HOP-92 = test system: HOP-92
MDA-MB-435 = test system: MDA-MB-435
HCT-15 = test system: HCT-15
NCI-H522 = test system: NCI-H522
DU-145 = test system: DU-145
OVCAR-8 = test system: OVCAR-8
IGROV-1 = test system: IGROV-1
MOLT-4 = test system: MOLT-4
ACHN = test system: ACHN
786-0 = test system: 786-0
CAKI-1 = test system: CAKI-1
MDA-N = test system: MDA-N
UACC-257 = test system: UACC-257
SF-268 = test system: SF-268
SK-OV-3 = test system: SK-OV-3
SF-539 = test system: SF-539
HCC 2998 = test system: HCC 2998

SMILES: O=C(O)C(O)(c1ccc(-c2ccccc2)cc1)c1ccc(-c2ccccc2)cc1
- GI50 (OVCAR-5): 26.7 µM (inactive)
- GI50 (MDA-MB-231): 28.3 µM (inactive)
- GI50 (PC-3): 27 µM (inactive)
- GI50 (HOP-92): 19.1 µM (inactive)
- GI50 (MDA-MB-435): 19.5 µM (inactive)
- GI50 (HCT-15): 19.2 µM
- GI50 (NCI-H522): 18.9 µM (inactive)
- GI50 (DU-145): 16.6 µM (inactive)
- GI50 (OVCAR-8): 32.5 µM (inactive)
- GI50 (IGROV-1): 23.4 µM (inactive)
- GI50 (MOLT-4): 42.2 µM (inactive)
- GI50 (ACHN): 32.1 µM (inactive)
- GI50 (786-0): 24.5 µM (inactive)
- GI50 (CAKI-1): 28.8 µM (inactive)
- GI50 (MDA-N): 17.1 µM (inactive)
- GI50 (UACC-257): 36.1 µM (inactive)
- GI50 (SF-268): 24.3 µM (inactive)

SMILES: O=C(O)/C(Cc1ccnc2ccccc12)=N\O
- GI50 (OVCAR-5): > 100 µM (inactive)
- GI50 (MDA-MB-231): > 100 µM (inactive)
- GI50 (SK-OV-3): > 100 µM (inactive)
- GI50 (PC-3): > 100 µM (inactive)
- GI50 (HOP-92): > 100 µM (inactive)
- GI50 (MDA-MB-435): > 100 µM (inactive)
- GI50 (SF-539): > 100 µM (inactive)
- GI50 (HCT-15): > 100 µM
- GI50 (NCI-H522): > 100 µM (inactive)
- GI50 (DU-145): > 100 µM (inactive)
- GI50 (OVCAR-8): > 100 µM (inactive)
- GI50 (IGROV-1): > 100 µM (inactive)
- GI50 (MOLT-4): > 100 µM (inactive)
- GI50 (ACHN): > 100 µM (inactive)
- GI50 (786-0): > 100 µM (inactive)
- GI50 (CAKI-1): > 100 µM (inactive)
- GI50 (MDA-N): > 100 µM (inactive)
- GI50 (UACC-257): > 100 µM (inactive)
- GI50 (SF-268): > 100 µM (inactive)

SMILES: CC(C)=NNc1snnc1C(N)=O
- GI50 (OVCAR-5): > 100 µM (inactive)
- GI50 (MDA-MB-231): > 100 µM (inactive)
- GI50 (SK-OV-3): > 100 µM (inactive)
- GI50 (PC-3): > 100 µM (inactive)
- GI50 (MDA-MB-435): > 100 µM (inactive)
- GI50 (SF-539): > 100 µM (inactive)
- GI50 (NCI-H522): > 100 µM (inactive)
- GI50 (DU-145): > 100 µM (inactive)
- GI50 (OVCAR-8): > 100 µM (inactive)
- GI50 (HCC 2998): > 100 µM (inactive)
- GI50 (IGROV-1): > 100 µM (inactive)
- GI50 (MOLT-4): > 100 µM (inactive)
- GI50 (ACHN): > 100 µM (inactive)
- GI50 (786-0): > 100 µM (inactive)
- GI50 (CAKI-1): > 100 µM (inactive)
- GI50 (MDA-N): > 100 µM (inactive)
- GI50 (UACC-257): > 100 µM (inactive)
- GI50 (SF-268): > 100 µM (inactive)

SMILES: O=c1cc(NNc2ccc(F)cc2)[nH]c(=O)[nH]1
- GI50 (OVCAR-5): 19.2 µM (inactive)
- GI50 (MDA-MB-231): 17.1 µM (inactive)
- GI50 (SK-OV-3): 39.1 µM (inactive)
- GI50 (PC-3): 16.6 µM (inactive)
- GI50 (SF-539): 21.5 µM (inactive)
- GI50 (HCT-15): 16.1 µM
- GI50 (DU-145): > 100 µM (inactive)
- GI50 (OVCAR-8): 23.1 µM (inactive)
- GI50 (HCC 2998): 23.4 µM (inactive)
- GI50 (IGROV-1): 16.6 µM (inactive)
- GI50 (MOLT-4): 19.8 µM (inactive)
- GI50 (ACHN): 17.9 µM (inactive)
- GI50 (786-0): 12.5 µM (inactive)
- GI50 (MDA-N): 16.4 µM (inactive)
- GI50 (UACC-257): > 100 µM (inactive)
- GI50 (SF-268): 20 µM (inactive)

SMILES: COI1NC(=O)c2ccccc21
- GI50 (OVCAR-5): > 100 µM (inactive)
- GI50 (MDA-MB-231): > 100 µM (inactive)
- GI50 (SK-OV-3): > 100 µM (inactive)
- GI50 (PC-3): > 100 µM (inactive)
- GI50 (HOP-92): > 100 µM (inactive)
- GI50 (MDA-MB-435): > 100 µM (inactive)
- GI50 (HCT-15): > 100 µM
- GI50 (NCI-H522): 74 µM (inactive)
- GI50 (DU-145): > 100 µM (inactive)
- GI50 (OVCAR-8): > 100 µM (inactive)
- GI50 (IGROV-1): > 100 µM (inactive)
- GI50 (MOLT-4): > 100 µM (inactive)
- GI50 (ACHN): > 100 µM (inactive)
- GI50 (786-0): > 100 µM (inactive)
- GI50 (MDA-N): > 100 µM (inactive)
- GI50 (SF-268): > 100 µM (inactive)

SMILES: CC(C)[Si](OC1=C(C(=O)N(C)c2ccccc2Cl)CCCCC1)(C(C)C)C(C)C
- GI50 (OVCAR-5): > 100 µM (inactive)
- GI50 (MDA-MB-231): > 100 µM (inactive)
- GI50 (SK-OV-3): > 100 µM (inactive)
- GI50 (HOP-92): > 100 µM (inactive)
- GI50 (MDA-MB-435): > 100 µM (inactive)
- GI50 (SF-539): > 100 µM (inactive)
- GI50 (HCT-15): > 100 µM
- GI50 (NCI-H522): 97.1 µM (inactive)
- GI50 (DU-145): > 100 µM (inactive)
- GI50 (OVCAR-8): > 100 µM (inactive)
- GI50 (IGROV-1): > 100 µM (inactive)
- GI50 (MOLT-4): > 100 µM (inactive)
- GI50 (ACHN): > 100 µM (inactive)
- GI50 (786-0): > 100 µM (inactive)
- GI50 (CAKI-1): > 100 µM (inactive)
- GI50 (MDA-N): > 100 µM (inactive)
- GI50 (UACC-257): > 100 µM (inactive)
- GI50 (SF-268): > 100 µM (inactive)

SMILES: CC1CC/C(=C\c2ccc(Cl)cc2)C2OC(N)=C(C#N)C(c3ccc(Cl)cc3)=C12 (stereo not drawn)
- GI50 (OVCAR-5): 15.9 µM (inactive)
- GI50 (MDA-MB-231): 10.4 µM (inactive)
- GI50 (SK-OV-3): 18.2 µM (inactive)
- GI50 (PC-3): 11.9 µM (inactive)
- GI50 (MDA-MB-435): 18.4 µM (inactive)
- GI50 (SF-539): 14.3 µM (inactive)
- GI50 (HCT-15): 11.1 µM
- GI50 (DU-145): 17 µM (inactive)
- GI50 (OVCAR-8): 13.9 µM (inactive)
- GI50 (IGROV-1): 12.3 µM (inactive)
- GI50 (MOLT-4): 4.37 µM (inactive)
- GI50 (ACHN): 16.4 µM (inactive)
- GI50 (786-0): 13.6 µM (inactive)
- GI50 (CAKI-1): 15.1 µM (inactive)
- GI50 (MDA-N): 14.7 µM (inactive)
- GI50 (UACC-257): 31.6 µM (inactive)
- GI50 (SF-268): 13.2 µM (inactive)

SMILES: O=C1C=Cc2c1csc2Br
- GI50 (OVCAR-5): > 100 µM (inactive)
- GI50 (MDA-MB-231): 91.8 µM (inactive)
- GI50 (SK-OV-3): > 100 µM (inactive)
- GI50 (PC-3): 65.3 µM (inactive)
- GI50 (MDA-MB-435): 32.1 µM (inactive)
- GI50 (HCT-15): 28.6 µM
- GI50 (NCI-H522): 18.7 µM (inactive)
- GI50 (DU-145): > 100 µM (inactive)
- GI50 (OVCAR-8): 38.2 µM (inactive)
- GI50 (IGROV-1): 38.3 µM (inactive)
- GI50 (MOLT-4): 21.3 µM (inactive)
- GI50 (ACHN): 30.7 µM (inactive)
- GI50 (786-0): 25.8 µM (inactive)
- GI50 (CAKI-1): > 100 µM (inactive)
- GI50 (MDA-N): 50 µM (inactive)
- GI50 (UACC-257): 67.3 µM (inactive)
- GI50 (SF-268): 86.9 µM (inactive)
